Source: ChEMBL document CHEMBL3638563, “Quinazoline compounds as kinase inhibitors” (2014)

Tests used:
[1] = molecular target: RAF proto-oncogene serine/threonine-protein kinase (Homo sapiens, UniProt P04049); experiment: (§1) Kinase Assay: Inhibition of kinase activity by test compound disclosed herein was estimated by quantifying the amount of [33P] incorporation of substrate in the presence of test compound. Standard assay conditions were 2 ng of recombinant C-Raf or 5 ng of recombinant B-Raf or 5 ng of recombinant B-Raf (V600E) kinase (Upstate Biotechnology) with 500 ng MEK1(K97R) in assay buffer {8 μM ATP, 0.5 μCi [33P]ATP (specific activity 3000 Ci/mmol, PerkinElmer), 50 mM Tris/HCl (pH7.5), and 1 mM EGTA, 1 mM Na3VO4, 1% 2-mercaptoethanol, 0.1% Brij 35, and 0.2 mg/ml BSA} at a final volume of 25 μL. Reactions were incubated at 30° C. for 30 min and stopped by adding 3% phosphoric acid, harvested onto a 96-well GF/B UniFilter (PerkinElmer) using a unifilter harvester (PerkinElmer), and counted with a TopCount microplate scintillation counter (PerkinElmer). The IC50 values of inhibitors were determined after carrying out assays at 3-fold serially diluted concentrations of each compound in duplication.
RAF proto-oncogene serine/threonine-protein kinase, sequence (P04049 whole entry): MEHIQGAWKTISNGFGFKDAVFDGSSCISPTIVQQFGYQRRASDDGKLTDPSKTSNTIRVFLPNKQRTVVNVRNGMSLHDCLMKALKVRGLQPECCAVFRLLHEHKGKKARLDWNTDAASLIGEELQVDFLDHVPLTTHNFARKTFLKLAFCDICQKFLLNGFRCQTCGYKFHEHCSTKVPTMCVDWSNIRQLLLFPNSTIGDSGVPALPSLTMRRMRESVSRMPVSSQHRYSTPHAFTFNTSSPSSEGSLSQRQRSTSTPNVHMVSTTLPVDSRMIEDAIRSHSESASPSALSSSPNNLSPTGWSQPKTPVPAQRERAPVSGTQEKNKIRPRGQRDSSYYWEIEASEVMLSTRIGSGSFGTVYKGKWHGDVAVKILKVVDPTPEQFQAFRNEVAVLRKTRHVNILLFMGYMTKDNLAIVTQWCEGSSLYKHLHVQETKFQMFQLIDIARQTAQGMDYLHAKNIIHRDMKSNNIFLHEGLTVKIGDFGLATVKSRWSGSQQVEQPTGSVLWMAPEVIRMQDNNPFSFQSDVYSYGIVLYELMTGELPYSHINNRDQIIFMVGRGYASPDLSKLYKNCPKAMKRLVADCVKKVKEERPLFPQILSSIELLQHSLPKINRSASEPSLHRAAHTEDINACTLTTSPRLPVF

[2] = molecular target: Serine/threonine-protein kinase B-raf (Homo sapiens, UniProt P15056); experiment: as §1
Serine/threonine-protein kinase B-raf, sequence (P15056 whole entry): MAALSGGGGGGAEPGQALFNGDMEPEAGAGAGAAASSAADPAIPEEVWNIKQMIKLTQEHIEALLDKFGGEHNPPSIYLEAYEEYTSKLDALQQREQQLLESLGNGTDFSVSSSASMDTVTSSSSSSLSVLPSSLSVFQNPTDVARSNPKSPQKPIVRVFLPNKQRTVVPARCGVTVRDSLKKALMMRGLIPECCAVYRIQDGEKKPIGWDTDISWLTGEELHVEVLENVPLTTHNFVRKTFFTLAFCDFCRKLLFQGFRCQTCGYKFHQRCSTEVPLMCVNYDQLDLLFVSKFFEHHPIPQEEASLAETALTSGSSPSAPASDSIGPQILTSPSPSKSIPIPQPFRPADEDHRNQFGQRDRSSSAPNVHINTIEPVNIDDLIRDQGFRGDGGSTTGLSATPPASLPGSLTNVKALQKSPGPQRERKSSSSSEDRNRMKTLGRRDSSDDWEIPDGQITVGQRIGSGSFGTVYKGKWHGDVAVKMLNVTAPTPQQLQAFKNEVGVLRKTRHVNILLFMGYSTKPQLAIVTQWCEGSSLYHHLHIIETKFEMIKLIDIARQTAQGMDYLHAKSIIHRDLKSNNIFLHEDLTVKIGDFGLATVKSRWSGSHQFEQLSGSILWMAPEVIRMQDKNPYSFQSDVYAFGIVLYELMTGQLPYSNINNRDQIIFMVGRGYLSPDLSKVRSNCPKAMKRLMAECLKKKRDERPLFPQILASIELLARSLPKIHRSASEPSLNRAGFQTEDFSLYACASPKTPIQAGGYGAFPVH

IC50 [1]: 2370 nM
IC50 [2]: 251 nM
SMILES: Nc1ccc(F)c(-c2ccc3ncnc(Nc4cccc5[nH]ncc45)c3c2)c1
